Read-outs that look alike come from different tables or passages of the source.
Tests used:
[1] = test system: H929 cells; assay: Cell viability assay (H929 10 FBS); type: cell-based; conditions: Homo sapiens, NCI-H929, 24 hours, read-out: H929_10FBS IC50
How it was run: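 H929 cells, 4000/well, in RPMI 1640 with 10% FBS, sodium pyruvate, HEPES and glucose were exposed to compound 24 h at 37 °C. Viability read as luminescence after 30-60 min at RT with CellTiter-Glo or ATPlite 1 Step.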

[2] = biological target: MCL-1 (Homo sapiens (Human), UniProt Q07820); assay: Cell free Mcl-1:Bim affinity assay (fluorescence polarization competition); type: binding; conditions: 15 nM MCL-1, 5 nM FITC-Bim, 1 hour at room temperature, read-out: BIM_Ki
Chain of MCL-1 (Q07820 whole entry): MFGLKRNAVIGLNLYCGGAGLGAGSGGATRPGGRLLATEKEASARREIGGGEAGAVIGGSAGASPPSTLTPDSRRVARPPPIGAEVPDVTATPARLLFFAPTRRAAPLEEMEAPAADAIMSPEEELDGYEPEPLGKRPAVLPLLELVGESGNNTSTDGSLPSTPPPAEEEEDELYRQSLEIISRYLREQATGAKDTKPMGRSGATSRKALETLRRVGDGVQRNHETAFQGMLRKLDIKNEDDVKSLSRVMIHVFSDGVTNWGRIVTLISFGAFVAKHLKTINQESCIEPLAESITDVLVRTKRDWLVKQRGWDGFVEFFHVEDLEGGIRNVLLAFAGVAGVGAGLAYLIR
How it was run: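 Compounds competed with FITC-labelled Bim peptide (5 nM) for MCL-1 (15 nM) in HEPES/NaCl buffer with 1% DMSO, 1 h at room temperature. Fluorescence polarization (535 nm emission) gave % inhibition versus DMSO and positive controls; IC50 from 10-point curves, converted to Ki by the Nikolovska-Coleska equation.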

Row | SMILES | IC50 [1] [nM] | Ki ([2]; class symbols) [nM] | Ki ([2]; numeric values) [nM]
1 | CO[C@@H]1/C=C/COCC(=O)NS(=O)(=O)c2ccc3c(c2)N(C[C@@H]2CC[C@H]21)C[C@@]1(CCCc2cc(Cl)ccc21)CO3 [Example 112, (3R,6R,7R,8E,22S)-6′-Chloro-7-methoxy-15,15-dioxo-spiro[[11,20]dioxa[15]thia-1,14-diazatetracyclo[14.7.2.03,6.019,24]pentacosa[8,16(25),17,19(24)]tetraene-22,1′-tetralin]-13-one] | > 1000 | 1 to 100 | –
2 | O=C(NS(=O)(=O)c1ccc2c(c1)N(CC1CCC1)CC1(CCCc3cc(Cl)ccc31)CO2)N1CCCC1 (stereo not drawn) [Example 24, N-[6′-Chloro-5-(cyclobutylmethyl)spiro[2,4-dihydro-1,5-benzoxazepine-3,1′-tetralin]-7-yl]sulfonylpyrrolidine-1-carboxamide] | > 1000 | – | 6
3 | CO[C@H]1/C=C/CC[C@H](C)C(=O)NS(=O)(=O)c2ccc3c(c2)N(C[C@@H]2CC[C@H]21)C[C@@]1(CCCc2cc(Cl)ccc21)CO3 [Example 85, (3R,6R,7S,8E,12S,22S)-6′-Chloro-7-methoxy-12-methyl-15,15-dioxo-spiro[20-oxa-15-thia-1,14-diazatetracyclo[14.7.2.03,6.019,24]pentacosa-8,16(25),17,19(24)-tetraene-22,1′-tetralin]-13-one] | > 1000 | 1 to 100 | –
4 | COC[C@@H]1CC/C=C/[C@@H](OC)[C@@H]2CC[C@H]2CN2C[C@@]3(CCCc4cc(Cl)ccc43)COc3ccc(cc32)S(=O)(=O)NC1=O [Example 96, (3R,6R,7R,8E,12S,22S)-6′-Chloro-12-(methoxymethyl)-7-methoxy-15,15-dioxo-spiro[20-oxa-15-thia-1,14-diazatetracyclo[14.7.2.03,6.019,24]pentacosa-8,16,18,24-tetraene-22,1′-tetralin]-13-one] | > 1000 | < 1 | –
5 | CO[C@@H]1/C=C/C[C@H](C)[C@@H](CC(=O)N(C)C)C(=O)NS(=O)(=O)c2ccc3c(c2)N(C[C@@H]2CC[C@H]21)C[C@@]1(CCCc2cc(Cl)ccc21)CO3 [Example 91, 2-[(3R,6R,7R,8E,11S,12R,22S)-6′-Chloro-7-methoxy-11-methyl-13,15,15-trioxo-spiro[20-oxa-15-thia-1,14-diazatetracyclo[14.7.2.03,6.019,24]pentacosa-8,16,18,24-tetraene-22,1′-tetralin]-12-yl]-N,N-dimethyl-acetamide] | > 1000 | 1 to 100 | –
6 | CC(C)(C)OC(=O)N1CCC(CC(=O)NS(=O)(=O)c2ccc3c(c2)N(CC2CCC2)CC2(CCCc4cc(Cl)ccc42)CO3)CC1 (stereo not drawn) [Example 22, tert-Butyl 4-[2-[[6′-chloro-5-(cyclobutylmethyl)spiro[2,4-dihydro-1,5-benzoxazepine-3,1′-tetralin]-7-yl]sulfonylamino]-2-oxo-ethyl]piperidine-1-carboxylate] | > 1000 | – | 57
7 | O=C(Cc1ccncc1)NS(=O)(=O)c1ccc2c(c1)N(CC1CCC1)C[C@@]1(CCCc3cc(Cl)ccc31)CO2 [Example 19, 2-Pyridin-4-yl-N-[(3S)-6′-chloro-5-(cyclobutylmethyl)spiro[2,4-dihydro-1,5-benzoxazepine-3,1′-tetralin]-7-yl]sulfonyl-acetamide] | > 1000 | – | 9.3
8 | O=C1Cc2ccn(n2)CC(=O)N2CCC(C2)CN2C[C@@]3(CCCc4cc(Cl)ccc43)COc3ccc(cc32)S(=O)(=O)N1 (stereo partly drawn) [Example 297, (23S)-6′-Chloro-16,16-dioxo-spiro[21-oxa-thia-1,6,9,15,27-pentazapentacyclo[15.7.2.13,6.19,12.020,25]octacosa-10,12(27),17,19,25-pentaene-23,1′-tetralin]-7,14-dione] | > 1000 | 1 to 100 | –

The next lines start with the values.

Row | IC50 [1] [nM] | Ki ([2]; class symbols) [nM] | Ki ([2]; numeric values) [nM] | SMILES
9 | < 500 | < 1 | – | CN(C(=O)O[C@H]1/C=C/COC(C)(C)C(=O)NS(=O)(=O)c2ccc3c(c2)N(C[C@@H]2CC[C@H]21)C[C@@]1(CCCc2cc(Cl)ccc21)CO3)[C@@H]1CCOC1 [Example 64, [(3R,6R,7S,8E,22S)-6′-Chloro-12,12-dimethyl-13,15,15-trioxo-spiro[11,20-dioxa-15-thia-1,14-diazatetracyclo[14.7.2.03,6.019,24]pentacosa-8,16,18,24-tetraene-22,1′-tetralin]-7-yl] N-methyl-N-[(3R)-tetrahydrofuran-3-yl]carbamate]
10 | < 500 | < 1 | – | COCCN1CCCN(C(=O)O[C@H]2/C=C/COC(C)(C)C(=O)NS(=O)(=O)c3ccc4c(c3)N(C[C@@H]3CC[C@H]32)C[C@@]2(CCCc3cc(Cl)ccc32)CO4)CC1 [Example 60, [(3R,6R,7S,8E,22S)-6′-Chloro-12,12-dimethyl-13,15,15-trioxo-spiro[11,20-dioxa-15-thia-1,14-diazatetracyclo[14.7.2.03,6.019,24]pentacosa-8,16,18,24-tetraene-22,1′-tetralin]-7-yl] 4-(2-methoxyethyl)-1,4-diazepane-1-carboxylate]
11 | > 1000 | 1 to 100 | – | CO[C@@H]1/C=C\CN[C@H](C)C(=O)NS(=O)(=O)c2ccc3c(c2)N(C[C@@H]2CC[C@H]21)C[C@@]1(CCCc2cc(Cl)ccc21)CO3 [Example 122, (3R,6R,7R,8Z,12R,22S)-6′-Chloro-7-methoxy-12-methyl-15,15-dioxo-spiro[20-oxa-15-thia-1,11,14-triazatetracyclo[14.7.2.03,6.019,24]pentacosa-8,16(25),17,19(24)-tetraene-22,1′-tetralin]-13-one]
12 | < 1000 | < 1 | – | CC1(C)OC/C=C/[C@H](OCC(=O)N2C[C@@H](F)[C@@H](F)C2)[C@@H]2CC[C@H]2CN2C[C@@]3(CCCc4cc(Cl)ccc43)COc3ccc(cc32)S(=O)(=O)NC1=O [Example 291, (3R,6R,7S,8E,22S)-6′-Chloro-7-[2-[(3R,4S)-3,4-difluoropyrrolidin-1-yl]-2-oxo-ethoxy]-12,12-dimethyl-15,15-dioxo-spiro[11,20-dioxa-15λ6-thia-1,14-diazatetracyclo[14.7.2.03,6.019,24]pentacosa-8,16,18,24-tetraene-22,1′-tetralin]-13-one]
13 | < 1000 | < 1 | – | COC[C@H]1C(=O)NS(=O)(=O)c2ccc3c(c2)N(C[C@@H]2CC[C@H]2[C@H](OC)/C=C/C[C@@H]1C)C[C@@]1(CCCc2cc(Cl)ccc21)CO3 [Example 87, (3R,6R,7R,8E,11S,12S,22S)-6′-Chloro-7-methoxy-12-(methoxymethyl)-11-methyl-15,15-dioxo-spiro[20-oxa-15-thia-1,14-diazatetracyclo[14.7.2.03,6.019,24]pentacosa-8,16,18,24-tetraene-22,1′-tetralin]-13-one]
14 | < 1000 | 1 to 100 | – | CON(C)CCO[C@H]1/C=C/COC(C)(C)C(=O)NS(=O)(=O)c2ccc3c(c2)N(C[C@@H]2CC[C@H]21)C[C@@]1(CCCc2cc(Cl)ccc21)CO3 [Example 267, (3R,6R,7S,8E,22S)-6′-Chloro-7-[2-[methoxy(methyl)amino]ethoxy]-12,12-dimethyl-15,15-dioxo-spiro[11,20-dioxa-15-thia-1,14-diazatetracyclo[14.7.2.03,6.019,24]pentacosa-8,16,18,24-tetraene-22,1′-tetralin]-13-one]
15 | < 500 | < 1 | – | CN(C(=O)O[C@H]1/C=C/CN(C)C2(CCC2)C(=O)NS(=O)(=O)c2ccc3c(c2)N(C[C@@H]2CC[C@H]21)C[C@@]1(CCCc2cc(Cl)ccc21)CO3)C1COC1 [Example 240, [(3R,6R,7S,8E,22S)-6′-Chloro-11-methyl-12,12-(1,3-propylene)-13,15,15-trioxo-spiro[20-oxa-15-thia-1,14-triazatetracyclo[14.7.2.03,6.019,24]pentacosa-8,16,18,24-tetraene-22,1′-tetralin]-7-yl] N-methyl-N-(oxetan-3-yl)carbamate]
16 | < 500 | < 1 | – | CO[C@@H]1CCN(CCO[C@H]2/C=C/COC(C)(C)C(=O)NS(=O)(=O)c3ccc4c(c3)N(C[C@@H]3CC[C@H]32)C[C@@]2(CCCc3cc(Cl)ccc32)CO4)C1 [Example 260, (3R,6R,7S,8E,22S)-6′-Chloro-7-[2-[(3R)-3-methoxypyrrolidin-1-yl]ethoxy]-12,12-dimethyl-15,15-dioxo-spiro[11,20-dioxa-15-thia-1,14-diazatetracyclo[14.7.2.03,6.019,24]pentacosa-8,16,18,24-tetraene-22,1′-tetralin]-13-one]
17 | < 500 | < 1 | – | CN(C)C(=O)O[C@@H]1/C=C/COC(C)(C)C(=O)NS(=O)(=O)c2ccc3c(c2)N(C[C@@H]2CC[C@H]21)C[C@@]1(CCCc2cc(Cl)ccc21)CO3 [Example 37, [(3R,6R,7R,8E,22S)-6′-Chloro-12,12-dimethyl-13,15,15-trioxo-spiro[11,20-dioxa-15-thia-1,14-diazatetracyclo[14.7.2.03,6.019,24]pentacosa-8,16,18,24-tetraene-22,1′-tetralin]-7-yl] N,N-dimethylcarbamate]
18 | < 1000 | < 1 | – | CC(=O)O[C@H]1/C=C/CO[C@@H](C)C(=O)NS(=O)(=O)c2ccc3c(c2)N(C[C@@H]2CC[C@H]21)C[C@@]1(CCCc2cc(Cl)ccc21)CO3 [Example 113, [(3R,6R,7S,8E,12S,22S)-6′-Chloro-12-methyl-13,15,15-trioxo-spiro[11,20-dioxa-15-thia-1,14-diazatetracyclo[14.7.2.03,6.019,24]pentacosa-8,16,18,24-tetraene-22,1′-tetralin]-7-yl] acetate]
